We go through 13 compounds from publication PMC12566703, “Design, Synthesis, In Vitro and In Silico Biological Evaluation of New Pyridine-2,5-Dicarboxylates Esters Bearing Natural Source Fragments as Anti-Trypanosomatid Agents” (Pharmaceutics, 2025).

Several values for one entry are separate records, joined by “and”; a condition that tells them apart may be missing. Identical values can stand only once. Like-named read-outs stand apart in the source and are kept apart here.

Data set [1] has as its system L. mexicana. The arrangement: method as in doi:10.2174/1573407213666170405121810. The settings on record: pyridine compound of Figure 1A; read-out: IC50, leishmanicidal activity; cited from earlier work.
For data set [2], the system named is Leishmania. The arrangement: method as in doi:10.1016/j.molstruc.2018.11.017. The conditions noted are these: natural product scaffold of Figure 1B; read-out: IC50, leishmanicidal activity; cited from earlier work.
In data set [3] the test system is T. cruzi (NINOA) epimastigotes. The experiment in a line: In vitro trypanocidal activity, Alamar Blue assay, 48 h. The data set is classed as cell-based, Trypanosoma cruzi. The conditions noted are these: for IC50: 48 h, read-out: T. cruzi IC50 (µM ± SD) NINOA; for IC50 / Trypanocidal activity class in words, NINOA strain: epimastigotes, NINOA strain; for Selectivity Index T. cruzi NINOA: CC50 (J774.2)/IC50; for Trypanocidal activity class in words, NINOA strain: classes by IC50. The protocol: (§1) Both strains were maintained in liver infusion tryptose (LIT) medium supplemented with 10% FBS and 0.1% penicillin-streptomycin. They were preserved by transferring 1 × 10^6 parasites/mL into a new culture medium every week. […] The metabolic activity was determined by the Alamar Blue assay. Briefly, after the incubation period, 20 µL of 2.5 mM resazurin solution was added to each well and incubated for 3 h. Three independent experiments were performed in triplicate. The half-maximum inhibitory concentration (IC50) was determined using probit analysis.
A general note: Alamar Blue is a resazurin reagent that responds to reducing activity.

Data set [4] has as its system T. cruzi (A1) epimastigotes. The data set is described as above. The data set is classed as cell-based, Trypanosoma cruzi. The conditions noted are these: for Selectivity Index T. cruzi A1: CC50 (J774.2)/IC50; for IC50: Trypanosoma cruzi, 48 h, read-out: T. cruzi IC50 (µM ± SD) A1; for IC50 / Trypanocidal activity class in words, A1 strain: epimastigotes, A1 strain; for Trypanocidal activity class in words, A1 strain: classes by IC50. The method, then:
as §1

The nature of data set [5]: Cytotoxicity assay, MTT method, 48 h. The data set is classed as cell-based, murine. The settings on record: mouse, J774.2 macrophage cells, J774.2 cell line, read-out: Macrophage J774.2 CC50 (µM ± SD). The method, then: (§2) A cytotoxicity assay was performed using the murine macrophage J774.2 cell line, which was recloned from the original ascites and solid tumor J774.1 (according to the manufacturer). The cells were cultured in RPMI medium supplemented with 10% SBF, 100 U […] penicillin, 100 µg/mL streptomycin, and glutamine (2 mM), and 5% CO2 atmosphere. The medium was changed every 2–3 days. Macrophages were used at 1 × 10^6 cells and were incubated with compounds at different concentrations (0.75–100 µM, respectively) at 37 °C for 48 h in a 5% CO2 atmosphere. DMSO was used as a negative control (0.2%). The metabolic activity of macrophages was determined by the MTT method. The percentage of cell viability was calculated, and the half-maximal cytotoxic concentration (CC50) was determined using probit analysis. Three independent assays were conducted in triplicate.
(Tetrazolium assays rely on reduction of a dye to a coloured formazan, in cell work by metabolically active cells.)

For data set [6], the system named is L. mexicana (MHOM/MX/2017/UABJO17FCQEPS) (FCQEPS) promastigotes. Kind of data set: In vitro leishmanicidal activity, MTT method, 48 h. The settings on record: for Selectivity Index L. mexicana FCQEPS: CC50 (J774.2)/IC50; for IC50: 48 h, read-out: L. mexicana IC50 (µM ± SD) FCQEPS; for IC50 / Leishmanicidal activity class in words, FCQEPS strain: promastigotes, FCQEPS strain; for Leishmanicidal activity class in words, FCQEPS strain: classes by IC50. The data set is classed as cell-based, Leishmania mexicana. The protocol: (§3) To determine the leishmanicidal activity of pyridine-2,5-dicarboxylates, the parasites, in their logarithmic growth phase (5 × 10^5 parasites/mL), were cultured in 96-well microliter plates with the corresponding pyridine-2,5-dicarboxylate compound at different concentrations (0.78–100 µM). Compounds were dissolved in DMSO in a final volume of 200 µL for 48 h at 26 °C. Parasites treated with DMSO (0.2%) were used as a negative control, while treatments with Glucantime and Amphotericin B, at the same concentrations, were used as positive controls. The metabolic activity of the cells was determined using the 3-(4,5-Dimethylthiazol-2-yl)-2,5-diphenyltetrazolium bromide (MTT) method. IC50 was determined using probit analysis. Three independent experiments were performed in triplicate, and the data were analyzed for statistical significance (p < 0.05) using Biostat 5.3.0 software.

In data set [7] the test system is L. mexicana (MNYC/BZ/62/M379) (M379) promastigotes. The experiment in a line: In vitro leishmanicidal activity, MTT method, 48 h. The data set is classed as cell-based, Leishmania mexicana. The settings on record: for Selectivity Index L. mexicana M379: CC50 (J774.2)/IC50; for IC50: 48 h, read-out: L. mexicana IC50 (µM ± SD) M379; for IC50 / Leishmanicidal activity class in words, M379 strain: promastigotes, M379 strain; for Leishmanicidal activity class in words, M379 strain: classes by IC50. The method, then:
as §3

For data set [8], the system named is T. cruzi. The settings on record: read-out: IC50, trypanocidal activity, cited from earlier work.
Data set [9] concerns murine macrophage J774.2 cell line. Kind of data set: Cytotoxicity assay, MTT method, 48 h. The data set is classed as cell-based. The settings on record: read-out: Macrophage J774.2 CC50 (µM ± SD). The method, then: as §2

Consider `Cc1ccc(O)c(C(=O)c2cnc3[nH]nc(C)c3c2)c1` [Compound 7], for which, in [1], the IC50 is 31 µM.
For `CC1=CC[C@H](C(C)(C)NC(=S)N/N=C/c2ccc([N+](=O)[O-])cc2)CC1` [Compound 8d], the IC50 in data set [2] is 2.4 µM.
Turning to `CCOC(=O)c1nc(C)c(C(=O)OCC23CC4CC(CC(C4)C2)C3)cc1-c1ccc(C)cc1` [Compound 10b], the IC50 in data set [3] (Trypanosoma cruzi) is under 26.4 µM; in data set [3], 20.98 ± 0.15 µM; in data set [4], 111 ± 1.14 µM; in data set [6] (Leishmania mexicana), 92.93 ± 0.02 µM; in data set [7] (Leishmania mexicana), over 200 µM. For the same compound, the “Selectivity Index T. cruzi A1” value in data set [4] is given as over 1.8. Further, the CC50 at 48 h in [5] is over 200 µM. For the same compound, the “Selectivity Index L. mexicana FCQEPS” value in [6] is on record as over 2.1. For the same compound, the “Selectivity Index L. mexicana M379” value in [7] is listed as over 1.
Regarding `CCOC(=O)c1nc(C)c(C(=O)OCC23CC4CC(CC(C4)C2)C3)cc1-c1ccc(F)cc1` [Compound 10c], the “Selectivity Index T. cruzi NINOA” value in data set [3] is reported as over 4.0. The IC50 in data set [3] (Trypanosoma cruzi) is 50.6 ± 1.06 µM; in data set [4], 38.2 ± 2.86 µM; in [6] (Leishmania mexicana), over 200 µM; in data set [7] (Leishmania mexicana) it was under 56 µM; in data set [7], 54.8 µM. For the same compound, in data set [4], the “Selectivity Index T. cruzi A1” value is over 5.2. In data set [5], the CC50 at 48 h was over 200 µM. Also, the “Selectivity Index L. mexicana FCQEPS” value in data set [6] was over 1. Besides, in data set [6], the “Leishmanicidal activity class in words, FCQEPS strain” value is “abolished their leishmanicidal activity”. In addition, the “Selectivity Index L. mexicana M379” value in data set [7] is given as over 3.6.
Regarding `Clc1ccc(-c2csc(N/N=C/c3ccccn3)n2)cc1Cl` [Compound 11], in [8] (pyridine compound of Figure 1A), the IC50 was 4 µM.
With `CCOC(=O)c1nc(C)c(C(=O)OCCC(C)CCC=C(C)C)cc1-c1ccccc1` (centres unmarked) [Compound 11a], the IC50 in data set [3] (Trypanosoma cruzi) is over 200 µM; in data set [4], over 200 µM; in data set [6] (Leishmania mexicana), 73 ± 1.78 µM; in [7] (Leishmania mexicana), over 200 µM. Further, in data set [3], the “Trypanocidal activity class in words, NINOA strain” value was “inactive”. Besides, the CC50 at 48 h in data set [5] was 119 ± 7.3 µM. Moreover, the “Selectivity Index L. mexicana FCQEPS” value in [6] stood at 1.6. The “Leishmanicidal activity class in words, M379 strain” value in data set [7] was “did not have antiparasitic activity”.
`CCOC(=O)c1nc(C)c(C(=O)OCCC(C)CCC=C(C)C)cc1-c1ccc(C)cc1` (centres unmarked) [Compound 11b]: the IC50 in data set [3] (Trypanosoma cruzi) was over 200 µM; in data set [4], 51.6 ± 0.59 µM; in data set [6] (Leishmania mexicana) it was over 200 µM; in data set [7] (Leishmania mexicana), over 200 µM. In addition, the “Trypanocidal activity class in words, NINOA strain” value in data set [3] is “inactive”. The “Selectivity Index T. cruzi A1” value in data set [4] came out at 3.3. Further, the CC50 at 48 h in data set [5] was 169 µM. In addition, the CC50 in data set [9] is 169.8 ± 1.3 µM. Moreover, the “Leishmanicidal activity class in words, M379 strain” value in data set [7] is “did not have antiparasitic activity”.
Consider `CCOC(=O)c1nc(C)c(C(=O)OCCC(C)CCC=C(C)C)cc1-c1ccc(F)cc1` (centres unmarked) [Compound 11c], for which the “Selectivity Index T. cruzi NINOA” value in data set [3] is over 2.5. Also, the IC50 in data set [3] (Trypanosoma cruzi) stood at 79.9 ± 2.6 µM. In data set [4], the “Selectivity Index T. cruzi A1” value was over 8.0 and the IC50 was 24.9 ± 4.1 µM. For the same compound, in data set [5], the CC50 at 48 h is over 200 µM. Moreover, in data set [6], the “Selectivity Index L. mexicana FCQEPS” value was over 1 and the “Leishmanicidal activity class in words, FCQEPS strain” value is “abolished their leishmanicidal activity”. For the same compound, the IC50 in [6] (Leishmania mexicana) is over 200 µM. Moreover, in data set [7], the “Selectivity Index L. mexicana M379” value is given as over 1 and the “Leishmanicidal activity class in words, M379 strain” value is “inactive”. The half-maximal inhibitory concentration (IC50) in data set [7] (Leishmania mexicana) is over 200 µM.
Consider `CCOC(=O)c1nc(C)c(C(=O)OC/C=C(\C)CCC=C(C)C)cc1-c1ccccc1` [Compound 12a], for which, in data set [3], the “Selectivity Index T. cruzi NINOA” value is given as 0.2 and the “Trypanocidal activity class in words, NINOA strain” value was “slight trypanocidal activity”. In addition, the IC50 in data set [3] (Trypanosoma cruzi) was determined as 106 ± 1.43 µM. In data set [4], the “Selectivity Index T. cruzi A1” value was 0.2; the IC50 was 117.8 ± 0.94 µM; the “Trypanocidal activity class in words, A1 strain” value is reported as “slight activity”. Besides, the 50% cytotoxic concentration (CC50) at 48 h in [5] is 25 ± 0.8 µM. Also, in data set [6], the “Selectivity Index L. mexicana FCQEPS” value amounted to 0.3. Further, in data set [6] (Leishmania mexicana), the IC50 came out at 75.3 ± 4.28 µM. The IC50 in data set [7] (Leishmania mexicana) is over 200 µM. Besides, the “Leishmanicidal activity class in words, M379 strain” value in data set [7] is “did not have antiparasitic activity”.
In the case of `CCOC(=O)c1nc(C)c(C(=O)OC/C=C(\C)CCC=C(C)C)cc1-c1ccc(C)cc1` [Compound 12b, (E)-5-(3,7-Dimethylocta-2,6-dien-1-yl) 2-ethyl 6-methyl-3-(p-tolyl)pyridine-2,5-dicarboxylate], in [3], the “Selectivity Index T. cruzi NINOA” value is listed as over 1. For the same compound, the IC50 in [3] (Trypanosoma cruzi) is over 200 µM. For the same compound, in data set [4], the “Selectivity Index T. cruzi A1” value was over 1; the 50% inhibitory concentration (IC50) is over 200 µM; the “Trypanocidal activity class in words, A1 strain” value is “completely lose their trypanocidal activity”. In [5], the cytotoxic concentration (CC50) at 48 h is over 200 µM. In data set [6], the “Selectivity Index L. mexicana FCQEPS” value was over 3.5. Further, the “Selectivity Index L. mexicana M379” value in data set [7] is on record as over 3.6.
On to `CCOC(=O)c1nc(C)c(C(=O)OC/C=C(\C)CCC=C(C)C)cc1-c1ccc(F)cc1` [Compound 12c], for which the “Selectivity Index T. cruzi NINOA” value in [3] was over 4.1. Further, the IC50 was 49.1 ± 2.5 µM in data set [3] (Trypanosoma cruzi), 50.1 ± 1 µM in [4], 114 ± 7.03 µM in [6] (Leishmania mexicana) and 85.98 ± 0.02 µM in [7] (Leishmania mexicana). Moreover, in data set [4], the “Selectivity Index T. cruzi A1” value is listed as over 4.0. The CC50 at 48 h in data set [5] was over 200 µM. In addition, the “Selectivity Index L. mexicana FCQEPS” value in [6] is over 1.7. Also, the “Selectivity Index L. mexicana M379” value in data set [7] is over 2.3.
`CNC[C@H](O)[C@@H](O)[C@H](O)[C@H](O)CO.[O]=[Sb](=[O])[OH]` [Glc, Glucantime, reference compound]: the CC50 in [9] turned out to be 273 µM. For the same compound, the “Selectivity Index L. mexicana FCQEPS” value was 2.2 in data set [6]; 2.18 and 2 in data set [6] (listed as Glucantime). Also, the IC50 was over 125 µM in data set [6] (listed as Glucantime); 125 ± 11.6 µM in [6]; 134 µM and > 125 µM in data set [7] (listed as Glucantime); 134 ± 4.32 µM in [7]. Besides, the “Selectivity Index L. mexicana M379” value in [7] is recorded as 2.0; in data set [7] (listed as Glucantime), 2.03.
On to `CC1=CC[C@@H](C(C)(C)Nc2nnc(-c3ccc(C)cc3)s2)CC1` [TDZ 2], for which the IC50 in data set [8] (natural product scaffold of Figure 1B) was 1.3 µM.

In general, IC50 refers to the concentration that inhibits the measured activity by half. One may read the CC50 as the concentration giving 50% cytotoxicity.
